Results as given in PubChem BioAssay AID1963849 (Molecular Pharmacology Branch, DTP, NCI, 2024).

Test system: 299254-011-R-J1-PDC complex spheroid viability
Assay: Anticancer human tumor 299254-011-R-J1-PDC patient-derived melanoma cell line growth inhibition [POLQ]
Conditions: for IC50: curve of first compound; for viability, T/C: stronger effect = lower value
Outline: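 Growth inhibition in 3D: complex spheroids (tumor PDC, HUVEC, MSC) treated with POLQ inhibitor combinations; where Cmax unknown, highest tested concentration 10 microM, except SN-38 at 1 microM.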

[1] = second compound 0.0316 µM, first compound 0.0316 µM
[2] = second compound 0.0316 µM, first compound 0.1 µM
[3] = second compound 0.0316 µM, first compound 0.316 µM
[4] = second compound 0.0316 µM, first compound 1 µM
[5] = second compound 0.0316 µM, first compound 3.16 µM
[6] = second compound 0.0316 µM, first compound 10 µM
[7] = second compound 0.1 µM, first compound 0.0316 µM
[8] = second compound 0.1 µM, first compound 0.1 µM
[9] = second compound 0.1 µM, first compound 0.316 µM
[10] = second compound 0.1 µM, first compound 1 µM
[11] = second compound 0.1 µM, first compound 3.16 µM
[12] = second compound 0.1 µM, first compound 10 µM
[13] = second compound 0.316 µM, first compound 0.0316 µM
[14] = second compound 0.316 µM, first compound 0.1 µM
[15] = second compound 0.316 µM, first compound 0.316 µM
[16] = second compound 0.316 µM, first compound 1 µM
[17] = second compound 0.316 µM, first compound 3.16 µM
[18] = second compound 0.316 µM, first compound 10 µM
[19] = second compound 1 µM, first compound 0.0316 µM
[20] = second compound 1 µM, first compound 0.1 µM
[21] = second compound 1 µM, first compound 0.316 µM
[22] = second compound 1 µM, first compound 1 µM
[23] = second compound 1 µM, first compound 3.16 µM
[24] = second compound 1 µM, first compound 10 µM
[25] = second compound 3.16 µM, first compound 0.0316 µM
[26] = second compound 3.16 µM, first compound 0.1 µM
[27] = second compound 3.16 µM, first compound 0.316 µM
[28] = second compound 3.16 µM, first compound 1 µM
[29] = second compound 3.16 µM, first compound 3.16 µM
[30] = second compound 3.16 µM, first compound 10 µM
[31] = second compound 10 µM, first compound 0.0316 µM
[32] = second compound 10 µM, first compound 0.1 µM
[33] = second compound 10 µM, first compound 0.316 µM
[34] = second compound 10 µM, first compound 1 µM
[35] = second compound 10 µM, first compound 3.16 µM
[36] = second compound 10 µM, first compound 10 µM
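Note: spheroids exposed to drugs for one week before measurement.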
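Throughout, for viability, T/C: percent viability relative to DMSO vehicle control taken as 100%.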

In the case of `O=C(Nc1ccc(O)c(NS(=O)(=O)c2ccc(F)cc2)c1)c1ccc(-c2ccccc2)cc1` + COC1C(OC(N)=O)C(O)C(Oc2ccc3c(O)c(NC(=O)c4ccc(O)c(CC=C(C)C)c4)c(=O)oc3c2C)OC1(C)C, the IC50 (second compound 0.0316 µM) is reported as 9.1 µM, the IC50 (second compound 0.1 µM) is reported as over 10 µM and the IC50 (second compound 0.316 µM) is reported as 8.62 µM. For the same molecule, the IC50 (second compound 1 µM) was over 10 µM, the IC50 (second compound 3.16 µM) was over 10 µM and the IC50 (second compound 10 µM) was over 10 µM. It also gave a viability, T/C [1] of 105%, a viability, T/C [2] of 96.9% and a viability, T/C [3] of 94.2%. The viability, T/C [4] was 109%, the viability, T/C [5] was 112% and the viability, T/C [6] was 45.3%. It also gave a viability, T/C [7] of 95.6%, a viability, T/C [8] of 114% and a viability, T/C [9] of 105%. For the same molecule, the viability, T/C [10] was 94.6%, the viability, T/C [11] was 86.3% and the viability, T/C [12] was 57.1%. The viability, T/C [13] was 127%, the viability, T/C [14] was 101% and the viability, T/C [15] was 104%. It also gave a viability, T/C [16] of 95.7%, a viability, T/C [17] of 97.7% and a viability, T/C [18] of 42.6%. It also gave a viability, T/C [19] of 110%, a viability, T/C [20] of 104% and a viability, T/C [21] of 108%. For the same molecule, the viability, T/C [22] was 118%, the viability, T/C [23] was 93.3% and the viability, T/C [24] was 54.7%. For the same molecule, the viability, T/C [25] was 109%, the viability, T/C [26] was 114% and the viability, T/C [27] was 109%. For the same molecule, the viability, T/C [28] was 94.6%, the viability, T/C [29] was 99.4% and the viability, T/C [30] was 55.9%. It also gave a viability, T/C [31] of 96.2%, a viability, T/C [32] of 127% and a viability, T/C [33] of 106%. The viability, T/C [34] was 103%, the viability, T/C [35] was 96.5% and the viability, T/C [36] was 58.4%.
`CCCS(=O)(=O)Nc1ccc(F)c(C(=O)c2c[nH]c3ncc(-c4ccc(Cl)cc4)cc23)c1F` + Nc1ccc(C#CCN(C(=O)Cc2ncc(C(F)(F)F)cc2C(F)(F)F)c2ccc(F)cc2)nn1 gave an IC50 (second compound 0.0316 µM) of 9.62 µM, an IC50 (second compound 0.1 µM) of 9.01 µM and an IC50 (second compound 0.316 µM) of 9.95 µM. The IC50 (second compound 1 µM) was 8.98 µM, the IC50 (second compound 3.16 µM) was over 10 µM and the IC50 (second compound 10 µM) was over 10 µM. For the same molecule, the viability, T/C [1] was 109%, the viability, T/C [2] was 128% and the viability, T/C [3] was 122%. For the same molecule, the viability, T/C [4] was 120%, the viability, T/C [5] was 108% and the viability, T/C [6] was 47.8%. It also gave a viability, T/C [7] of 92.7%, a viability, T/C [8] of 117% and a viability, T/C [9] of 119%. The viability, T/C [10] was 110%, the viability, T/C [11] was 104% and the viability, T/C [12] was 44.6%. For the same molecule, the viability, T/C [13] was 97.5%, the viability, T/C [14] was 93.5% and the viability, T/C [15] was 112%. The viability, T/C [16] was 111%, the viability, T/C [17] was 129% and the viability, T/C [18] was 49.7%. The viability, T/C [19] was 97.3%, the viability, T/C [20] was 99.2% and the viability, T/C [21] was 106%. For the same molecule, the viability, T/C [22] was 121%, the viability, T/C [23] was 122% and the viability, T/C [24] was 43.8%. The viability, T/C [25] was 108%, the viability, T/C [26] was 140% and the viability, T/C [27] was 140%. It also gave a viability, T/C [28] of 101%, a viability, T/C [29] of 106% and a viability, T/C [30] of 50.7%. The viability, T/C [31] was 94.8%, the viability, T/C [32] was 98.6% and the viability, T/C [33] was 109%. For the same molecule, the viability, T/C [34] was 102%, the viability, T/C [35] was 98.5% and the viability, T/C [36] was 57%.
